# Measurements from patent US7439359B2, “Small molecule compositions for binding to hsp90” (Sloan-Kettering Institute for Cancer Research, priority 2000, dated 2008).
# Entries after “also recorded” stand apart in the source; their conditions may differ.
# Assays:
# MCF-7 [1] = experiment: Growth inhibition, sulforhodamine B assay; type: cell-based, human; conditions: Homo sapiens, MCF7, 72 hours, unit inferred
# Source text: (§1) Protein Assays. […] Antiproliferative index. […] Tissue Culture IC50 Studies. […] Her2 degradation. Total Protein Assays. […] Binding studies. Solid phase competition assays.
# MDA-MB-468 [2] = experiment: Growth inhibition, sulforhodamine B assay; type: cell-based, human; conditions: Homo sapiens, MDA-MB-468, 72 hours, unit inferred
# Source text: as §1
# Raf-1 [3] = experiment: Raf-1 degradation in SKBr3 cells (immunoblot); type: cell-based, human; conditions: SKBr3, 24 hours, 10-250 μM
# Experimental: PU4 degraded Her2 at concentrations greater than 50 μM and Raf-1 at a concentration of 250 μM.
# Raf-1 [4] = experiment: Raf-1 amount in MCF-7 cells, time course; type: cell-based, human; conditions: MCF-7, 100 μM, 1.5-24 hours
# Experimental: (§2) To test the time course of degradation, MCF-7 cells were treated with 100 μM PU3. Aliquots of cells were recovered at 1.5, 3, 6, 12 and 24 hours, and the amount of Her2, Raf-1, Hsp90 and Trap-1 was evaluated.
# estrogen receptor = experiment: Estrogen receptor degradation in MCF-7 cells (immunoblot); type: cell-based, human; conditions: MCF-7, 24 hours, 10-250 μM
# Hsp90 = Hsp90 levels in MCF-7 cells (Western blotting); type: cell-based, human
# Experimental: as §2
# Hsp70 = Hsp70 levels in MCF-7 cells (Western blotting); type: cell-based, human
# Trap1 = Trap1 levels in MCF-7 cells (Western blotting); type: cell-based, human; conditions: MCF-7, 10-250 μM, 24 hours
# MCF-7 [5] = experiment: Growth assay, cell number by coulter counter; type: cell-based, human; conditions: MCF-7, FIG. 14
# Experimental: (§3) Cell cultures of MCF-7, SKBr3 and MDA-MB-468 cells were treated with PU3 at one of several concentrations or a DMSO control to test for the occurrence of antiproliferative effects. FIGS. 14A-C show the results of cell number as a function of time.
# MDA-MB-468 [6] = experiment: Growth assay, cell number by coulter counter; type: cell-based, human; conditions: MDA-MB-468, FIG. 14
# Experimental: as §3
# SKBr3 = experiment: Growth assay, cell number by coulter counter; type: cell-based, human; conditions: SKBr3, FIG. 14
# Experimental: as §3
# MCF-7 cells = experiment: Changes in cell morphology; type: cell-based, human; conditions: MCF-7 cells exposed to drug
# Source text: Drugs may also be assayed based upon observed very characteristic changes in cell morphology. […] The increase in size is mostly due to an abundance in cytoplasm. These morphological changes are characteristic of mature epithelial differentiation and reversal of transformation.
# [7] = system: Her2, Raf1, Her3, estrogen receptor (ER), Rb, p85 (PI3K), tubulin and actin; experiment: Western blot of signaling proteins in SKBr3 and MCF-7 cells (differential degradation); type: cell-based, human
# Experimental: Cultures of SKBr3 and MCF-7 cells were treated with varying concentrations (0, 10, 50 100, or 250 μM) of PU3 for 24 hours. The cells were lysed and levels of Her2, Raf1, Her3, estrogen receptor (ER), p85 (PI3K), tubulin and actin were analyzed by western blotting. Reduction in the amount of those signaling proteins which depend on hsp90 for their function (Her2, Raf1, Her3 and ER) was observed. No effect was observed on PI3K, tubulin or actin, proteins which are involved in other signaling pathways.
# [8] = Safety in mice with MCF-7 xenografts; type: in vivo; conditions: IP
# Experimental: (§4) PU3 was tested for its safety and potency in MCF-7 xenografts. […] Mice with established tumors were treated with a single dose of PU3 at doses of 50, 100 and 500 mg/kg i.p. Control mice were treated with DMSO alone. Mice were sacrificed 12 hours post-treatment. For immunoblotting, tumor tissue was homogenized in 2% SDS lysis buffer (pH 7.4).
# Her2 [9] = experiment: Her2 levels in MCF-7 xenograft tumor tissue (immunoblotting); type: in vivo, Mice; conditions: single dose 50, 100 and 500 mg/kg i.p., 12 hours post-treatment
# Experimental: as §4
# PI3 kinase (p85) = PI3 kinase (p85) levels in MCF-7 xenograft tumor tissue (immunoblotting); type: in vivo, Mice; conditions: single dose 50, 100 and 500 mg/kg i.p., 12 hours post-treatment
# Experimental: as §4
# Hsp90alpha [10] = target: T1, Hsp90alpha (Homo sapiens, UniProt P07900); experiment: PU3-biotin on Sepharose-Streptavidin beads; type: binding; conditions: immobilized PU3-biotin
# Source text: (§5) PU3 was linked to Biotin through the middle OH in accordance with the synthetic scheme shown in FIGS. 16A and B. PU3-biotin was immobilized on Sepharose-Streptavidin beads.
# Trap-1 = target: T2, Trap-1 (Homo sapiens, UniProt Q12931); experiment: PU3-biotin on Sepharose-Streptavidin beads; type: binding; conditions: immobilized PU3-biotin
# T2 sequence (Q12931 60-704): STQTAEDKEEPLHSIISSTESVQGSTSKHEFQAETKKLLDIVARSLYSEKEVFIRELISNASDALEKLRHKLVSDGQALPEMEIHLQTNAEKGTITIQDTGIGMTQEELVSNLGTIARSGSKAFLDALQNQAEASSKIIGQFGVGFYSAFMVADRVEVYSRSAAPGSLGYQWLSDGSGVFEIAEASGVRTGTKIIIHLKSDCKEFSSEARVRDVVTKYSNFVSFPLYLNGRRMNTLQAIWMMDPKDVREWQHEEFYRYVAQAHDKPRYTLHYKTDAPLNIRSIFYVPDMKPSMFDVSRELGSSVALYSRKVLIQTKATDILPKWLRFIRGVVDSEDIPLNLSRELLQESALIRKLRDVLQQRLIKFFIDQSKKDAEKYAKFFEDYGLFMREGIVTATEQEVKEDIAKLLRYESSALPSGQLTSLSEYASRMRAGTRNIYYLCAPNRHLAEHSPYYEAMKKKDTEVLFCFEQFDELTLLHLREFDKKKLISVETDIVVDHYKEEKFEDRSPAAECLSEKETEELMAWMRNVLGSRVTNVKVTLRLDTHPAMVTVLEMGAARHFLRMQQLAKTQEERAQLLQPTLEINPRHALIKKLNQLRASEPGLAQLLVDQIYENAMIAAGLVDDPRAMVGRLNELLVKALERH
# Source text: as §5
# Hsp90alpha [11] = target: T1, Hsp90alpha; experiment: Solid phase competition assay with GM-beads, Hsp90 alpha immunoblot; type: binding; design: purchased Stressgen SPP-770; conditions: competition with immobilized GM; unit inferred; read-out: EC50 Hsp90 α
# Experimental: A test was also designed which allows identification of compounds which interact differentially with Hsp90-alpha and Hsp90-beta. […] An Hsp90 protein preparation containing both the alpha and the beta form is incubated with the support in the presence or absence of a compound to be evaluated. […] After washing, the material bound to the support is eluted and the eluate is separated on an SDS/PAGE gel and visualized by immunoblotting with anti-Hsp90-alpha and anti-Hsp90-beta to determine the amount of material bound. Alternatively, if quantitative amounts of the Hsp90 protein preparation or known ratios of alpha to beta forms of Hsp90 are used in the first instance, the unbound material can be analyzed by a similar technique.
# as §1
# Her2 [12] = experiment: Her2 total protein degradation in MCF-7 cells (immunoblot);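 also: Her2 levels judged by SDS-PAGE western blot of whole-cell lysates probed with anti-Her2 antibody, compared with DMSO vehicle-treated cells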
# [13] = MCF-7, 100 μM, within the 24 hour period
# [14] = SKBr3 and MCF-7, 10-250 μM, 24 hours
structure (smiles),measurement,setting,value
CCCCn1c(Cc2cc(OC)c(OC)c(OC)c2)nc2c(N)ncnc21 [PU3],IC50,MCF-7 [1],50 µM
same,IC50,MDA-MB-468 [2],61 µM
same,Raf-1 degradation,Raf-1 [3],only partial loss of Raf-1 at 250 μM
same,amount of Raf-1,Raf-1 [4],did not change significantly
same,estrogen receptor degradation,estrogen receptor,partially degraded estrogen receptor at concentrations over 50 μM; also recorded: dose-dependent degradation
same,synthesis of Hsp90,Hsp90; [13],significant synthesis
same,cellular levels of Hsp90,"Hsp90; MCF-7, 10-250 μM, 24 hours",increases the cellular levels of Hsp90 and Hsp70
same,synthesis of Hsp70,Hsp70; [13],significant synthesis
same,cellular levels of Hsp70,"Hsp70; MCF-7, 10-250 μM, 24 hours",increases the cellular levels of Hsp90 and Hsp70
same,Trap1 level / band recognized by anti-Trap-1 antibody,Trap1,induces a protein band that migrates more rapidly than Trap-1
same,cell number as a function of time,MCF-7 [5],clearly inhibits growth
same,cell number as a function of time,MDA-MB-468 [6],clearly inhibits growth
same,cell number as a function of time,SKBr3,clearly inhibits growth
same,cell morphology,MCF-7 cells,"flatten, increase in size and have distinct cellular boundaries"
same,"amount of Her2, Raf1, Her3 and ER",[7]; [14],Reduction
same,"amount of PI3K, tubulin or actin",[7]; [14],No effect
same,Her2 degradation and lower-molecular weight HER-2 band (Example 3 summary),[7]; cell line not stated,rapid decrease in Her2 levels
same,Raf / Her3 degradation (Example 3 summary),[7]; cell line not stated,"less sensitive to PU3, but are degraded at higher concentrations"
same,dose administered without significant signs of toxicity,[8],up to 500 mg/kg
same,Her2 levels in tumor,Her2 [9],reduction in Her2 levels
same,PI3 kinase (p85) levels in tumor,PI3 kinase (p85),No change
same,interaction with Hsp90alpha,Hsp90alpha [10],interaction of PU3 with the Trap-1 and Hsp90alpha
same,interaction with Trap-1,Trap-1,interaction of PU3 with the Trap-1 and Hsp90alpha
same,IC50,"Her2 [12]; Homo sapiens, MCF7, read-out: IC50 Her2/MCF-7",55 µM
same,Her2 lost,"Her2 [12]; MCF-7, 100 μM, within 3 hours of administration",more than 50%
